Results: paper PMC5971337, “Development of an Ultra-High Performance Liquid Chromatography Method for Simultaneous Determination of Six Active Compounds in Fructus aurantii and Rat Plasma and Its Application to a Comparative Pharmacokinetic Study in Rats Administered with Different Doses” (Journal of Analytical Methods in Chemistry, 2018)

What was measured:
[1] = Stability of the analytical solution of FA decoction at environmental temperature; type: physicochemical; conditions: FA decoction 1.7 g/mL
Method: The raw herb (200 g) was immersed in distilled water (1 : 8, w/v) for 0.5 h at room temperature and thereafter was boiled for 0.5 h. The filtrate was collected, and the residue was boiled again in distilled water (1 : 6, w/v) for 0.5 h. The filtrates were mixed together, filtered through a 0.45 µm porous filtration membrane, then farther concentrated in the rotary evaporator to a final concentration equivalent to 1.7 g/mL FA, and stored at −20°C until analyzed. In the experiment, FA decoction (100 µL) was precisely measured, 900 µL methanol was added, then ultrasound was done for 5 min, and it was centrifuged at 15000 rpm (4°C) for 10 min; the supernatant liquor (20 µL) was shifted to a 1.5 mL EP tube, methanol-water (780 µL) was added, and ultrasound was performed, and it was centrifuged at 15000 rpm (4°C) for 10 min again. Finally, 5 µL of the supernatant liquor was injected into the apparatus for detection.
The stability of the analytical solution at environmental temperature was studied by detecting sample solution at 0, 2, 4, 8, 12, and 24 h. The RSD values of peak areas were taken for assessment.

[2] = Pharmacokinetic study in rats after oral administration of FA decoction; type: in vivo, Sprague-Dawley rats; conditions: even after orally administering 30 g/kg FA decoction
Method: 16 male Sprague-Dawley (SD) rats weighing 200 ± 20 g were from experimental animal center of Central South University and fostered in an environmentally controlled room (temperature: 22–26°C, humidity: 40–60%, and 12 h dark-light cycle) for 1 week before the experiment. All experimental procedures were implemented strictly according to the guidelines of the Animal Care and Use Committee, Central South University, China. This research was approved by the Animal Ethics Committee of Central South University. Rats were randomly divided into 2 groups (n=8): low-dose group (15 g/kg FA decoction) and high-dose group (30 g/kg FA decoction). The two groups were given by gavage twice a day for 7 days in succession. At the 7th day of medication, the rats were prohibited feeding for about 12 hours without restriction of water. On day 8, the rats were orally administered for the last time at 8 am, and then plasma samples (0.5 mL) were collected from the caudal vein at 5, 10, 20, 30, 60, 90, 240, 360, 480, and 600 min into heparinized vacuum tubes, followed by centrifugation at 3500 rpm (4°C) for 10 min. Then, the plasmas were obtained and immediately stored at −20°C until analysis. During the experiment, the rats were injected intraperitoneally with physiological saline for maintaining fluid balance.
Standard stock solutions were prepared by dissolving reference standards in methanol to yield concentrations of 198 µg/mL for meranzin hydrate, 128 µg/mL for naringenin, 273 µg/mL for hesperetin, and 4.56 µg/mL for SMZ. All solutions were stored at 4°C. QC samples were prepared at three concentration levels containing meranzin hydrate (6.5, 206, 3300 ng/mL), naringenin (13.9, 222, 3555 ng/mL), and hesperetin (3.7, 29.5, 236 ng/mL). Plasmas (100 µL) were spiked with β-glucuronidase (5 µL) and acetic acid buffer solution (10 µL), subsequently vortexed for 10 seconds, and incubated for 4 h at 37°C. Then, SMZ (50 µL) and methanol (135 µL) were added, ultrasound was done for 10 min, and centrifugation at 12000 rpm (4°C) for 10 min was performed. The supernatant (50 µL) was transferred, distilled water (50 µL) was added, then ultrasound and centrifugation again. At last, the supernatant of 5 µL was injected into UPLC.
The database was set up with the SPSS 17.0 software package from SPSS Inc., Chicago, Illinois (US). Differences between the two groups were analyzed by one-way analysis of variance. A two-tailed P value of <0.05 was considered statistically significant. The DAS 3.2.8 pharmacokinetic program (Chinese Pharmacological Society) was used to process pharmacokinetic parameters.
The validated method was applied to determine the plasma concentrations of meranzin hydrate, naringenin, and hesperetin in rats after oral administration of FA decoction at a dose of 15 g/kg and 30 g/kg body weight. The mean plasma concentration-time profiles of meranzin hydrate, naringenin, and hesperetin are shown in Figure 4, and the estimated pharmacokinetic parameters are illustrated in Table 5. According to DAS software, the optimal metabolism process of the 3 components in rats could be depicted as a two-compartment pharmacokinetic model.

SMILES | Stability in FA decoction, Content ([1]; 0h) [mg/mL] | Stability in FA decoction, Content ([1]; 2h) [mg/mL] | Stability in FA decoction, Content ([1]; 4h) [mg/mL] | Stability in FA decoction, Content ([1]; 8h) [mg/mL] | Stability in FA decoction, Content ([1]; 12h) [mg/mL] | Stability in FA decoction, Content ([1]; 24h) [mg/mL] | detection in rat plasma [2]
COc1ccc([C@@H]2CC(=O)c3c(O)cc(O[C@@H]4O[C@H](CO[C@@H]5O[C@@H](C)[C@H](O)[C@@H](O)[C@H]5O)[C@@H](O)[C@H](O)[C@H]4O)cc3O2)cc1O [hesperidin] | 4.95 | 4.83 | 4.71 | 5.02 | 4.87 | 4.82 | could not been detected
C[C@@H]1O[C@@H](O[C@H]2[C@H](Oc3cc(O)c4c(c3)O[C@H](c3ccc(O)cc3)CC4=O)O[C@H](CO)[C@@H](O)[C@@H]2O)[C@H](O)[C@H](O)[C@H]1O [naringin] | 25.24 | 25.35 | 24.92 | 25.45 | 24.98 | 25.15 | could not been detected
COc1ccc([C@@H]2CC(=O)c3c(O)cc(O[C@@H]4O[C@H](CO)[C@@H](O)[C@H](O)[C@H]4O[C@@H]4O[C@@H](C)[C@H](O)[C@@H](O)[C@H]4O)cc3O2)cc1O [neohesperidin] | 14.33 | 14.28 | 13.98 | 14.40 | 14.11 | 14.08 | could not been detected
